Tests used:
Yeast coa6Δ cells = assay: Rescue of respiratory growth of yeast coa6Δ cells in YPGE medium (cell density at 600 nm); format: cell-based, Saccharomyces cerevisiae
Description: FIG. 1 illustrates determination of the median effective dose (ED50) of elesclomol. Yeast coa6Δ cells were cultured in YPGE medium at 37° C. in the presence of increasing concentrations (0.01 nM to 1 μM) of elesclomol (ES). The cell density was measured spectrophotometrically after 58 hours of growth at 600 nm. The data represent the average±SD from three independent measurements.
FIGS. 3A and 3B illustrates elesclomol rescue of respiratory growth of coa6Δ cells is dependent on copper availability. BY4741 WT, FIG. 3A, and coa6Δ, FIG. 3B, cells were cultured in YPGE medium at 37° C. in the presence of 10 nM ES, 20 μM of the copper chelator bathocuproine disulfonic acid (BCS), or a combination of both. The cell density was measured spectrophotoretrically at the indicated time points at 600 nm. The data are representative of two independent experiments.
(§1) Yeast Strains and Culture Conditions. The authenticity of yeast strains was confirmed by PCR as well as by replica plating on dropout plates. Yeast cells were cultured in standard YP growth media including YPD (1% yeast extract, 2% peptone and 2% glucose), YPGal (2% galactose), YPGE (3% glycerol+1% ethanol), or synthetic media (SC glucose). For qualitative growth measurement, 10-fold serial dilutions of overnight cultures were spotted on YPD or YPGE plates and incubated at 30° C. and 37° C. for the indicated period. Growth in liquid media was measured spectrophotometrically at 600 nm.
A number of copper-binding pharmacological agents were tested for their ability to rescue respiratory deficient growth of coa6Δ cells. […] ES rescued the respiratory growth of coa6Δ cells with an ED50 of 0.8 nM (FIG. 1). ES-mediated growth rescue of coa6Δ cells was also observed on solid growth medium containing a non-fermentable carbon. […] To determine the biochemical basis for the observed respiratory rescue of coa6Δ cells, the assembly and activity of CcO-containing mitochondrial respiratory chain supercomplexes was measured by native-polyacrylamide gel electrophoresis blotting and in-gel activity assay, respectively. […]

coa6Δ cells = assay: Oxygen consumption rate measurement; format: cell-based, Saccharomyces cerevisiae; conditions: 20 nM ES, YP galactose medium
Description: Oxygen Consumption Measurement. For measurements of respiration rates, cells were grown to late log phase in YPGal medium and then washed, counted, and resuspended in fresh YPGal medium at 10^8 cells/ml. The rate of oxygen consumption was then measured at 30° C. using the Oxytherm (Hansatech, Norfolk, UK). Cyanide-sensitive respiration was calculated after the addition of 1 mM KCN, and the cyanide-insensitive respiration was subtracted from the total respiration.

ctr1Δ cells = assay: Respiratory growth rescue of ctr1Δ yeast; format: cell-based, Saccharomyces cerevisiae; conditions: non-fermentable media, 37° C.
Description: as §1
(§2) ES Rescues Many Different Yeast Mutants with Impaired Copper Metabolism. To test the specificity of ES mediated rescue, a number of yeast mutants of genes required for maintaining cellular and mitochondrial copper homeostasis were shortlisted. Genes were prioritized based on their evolutionary conservation, presence of pathogenic mutations in humans, and/or the existence of a related mouse phenotype (Table 3, shown below). […] Most of the yeast mutants were rescued with ES supplementation, albeit to different degrees, reflecting their distinct roles in cellular and mitochondrial copper homeostasis.

yeast ccc2Δ = assay: Respiratory growth rescue of ccc2Δ yeast; format: cell-based, Saccharomyces cerevisiae; conditions: non-fermentable media, 37° C.
Description: as §1
as §2, with “homeostasis. […]” for “homeostasis.”

control MEFs = assay: COX1 levels in control mouse embryonic fibroblasts (toxicity); format: cell-based; conditions: higher doses of ES
Description: Mammalian Cell Culture. The human control MCH46 and SCO2 patient fibroblasts as well as the rat H9c2 control and Ctr1^−/− cardiomyocytes were cultured in high glucose Dulbecco's modified Eagle's medium (DMEM) supplemented with 10% fetal bovine serum (Sigma) and 1 mM sodium pyruvate (Life Technologies). The mouse embryonic fibroblasts were cultured in DMEM 10% FBS, 1 mM sodium pyruvate, 1× minimum essential medium non-essential amino acids (MEM NEAA; Life Technologies 11140), 50 μg/mL uridine, and 1× Pen Strep Glutamine (Life Technologies 10378). All cell lines were cultured under 5% CO2 at 37° C. and were treated with indicated concentrations of ES for 3-6 days before harvesting. Whole cell protein was extracted in lysis buffer (BP-115, Boston BioProducts) supplemented with protease inhibitor cocktail (Roche Diagnostics) and the protein concentrations were determined by BCA assay (Thermo Scientific).
Immunoblotting and In-gel Activities. Sodium dodecyl sulfate polyacrylamide gel electrophoresis (SDS-PAGE) and Blue Native PAGE (BN-PAGE) were performed to separate denatured and native protein complexes, respectively. For SDS-PAGE, mitochondrial lysate ([…]) was separated on NuPAGE 4-12% Bis-Tris gels (Life Technologies, Carlsbad, CA). For BN-PAGE, yeast mitochondria were solubilized in buffer containing 1% digitonin (Life Technologies) by incubating for 15 min at 4° C. […]

zebrafish embryos = assay: Survival of zebrafish embryos treated with ES, copper and combinations; format: in vivo
Description: NT, No treatment; ES, Elesclomol.

SMILES: CN(NC(=O)CC(=O)NN(C)C(=S)c1ccccc1)C(=S)c1ccccc1 [ES, elesclomol]
- ES mediated rescue in the presence of BCS (Yeast coa6Δ cells; 10 nM ES with 20 μM BCS): diminished
- potency relative to copper in rescuing the respiratory growth defect (Yeast coa6Δ cells; ES versus copper): at least 1000 times
- EC50 (Yeast coa6Δ cells; Saccharomyces cerevisiae, YPGE medium, 37° C., 0.01 nM to 1 μM ES, cell density at 600 nm after 58 hours, read-out: ED50 of rescue of respiratory growth): 0.8 nM
- oxygen consumption rate (coa6Δ cells): restored the oxygen consumption rate of coa6Δ cells to that of wild type cells
- rescue of respiratory growth (ctr1Δ cells): higher concentration of ES is required to rescue
- rescue of respiratory growth (yeast ccc2Δ): rescue
- ES toxicity reflected in COX1 levels (control MEFs): reduced COX1 levels
- lethality (zebrafish embryos; co-supplementation of 100 nM ES with 100 nM of copper): 100%
- maximal tolerable dose (zebrafish embryos; zebrafish embryos): 100 nM

Reference: patent US20240285555A1, “COMPOSITIONS FOR THE TREATMENT OF COPPER DEFICIENCY AND METHODS OF USE” (priority 2018, published 2024)
